This is an account of results in PubChem BioAssay (NCI).

What all share (experiment): NCI tumour cell line growth inhibition, 48 h
Assay [1] relates to CAKI-1 renal.
Assay [2] relates to U251 CNS.
Assay [3] concerns OVCAR-4 ovarian.
The subject of assay [4] is SN12C renal.
For assay [5], the system named is HCT-15 colon.
Assay [6] has as its system K-562 leukemia.
The test system of assay [7] is CCRF-CEM leukemia.
In assay [8] the test system is SK-MEL-2 melanoma.
Assay [9] relates to HOP-92 NSCLC.
Assay [10] concerns HOP-62 NSCLC.

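Method: 48-hour compound exposure of cells in 96-well plates, five concentrations, linear interpolation of endpoints. GI50 = concentration required for 50% inhibition of growth. The concentration for full growth arrest is given as TGI.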 A value given as a limit tells only on which side of the number the result lay.

Turning to `CNC(=O)c1ncccc1Nc1nc(Nc2cc3c(cc2OC)CCCN3C(=O)CN(C)C)nc2[nH]ccc12`, the GI50 in [1] was 2.74 µM; in assay [2] it was 2.02 µM; in assay [3], 2.98 µM; in assay [4] it was 3.36 µM; in assay [5], 1.84 µM; in assay [6], 1.88 µM. Besides, the GI50 in assay [7] was 0.568 µM; in assay [8] it was 0.877 µM; in [9] it was 0.049 µM; in assay [10], 1.17 µM. Also, the TGI in assay [1] was found to be 7.22 µM; in assay [2], 5.38 µM; in assay [3], 6.67 µM; in [4], 7.37 µM; in assay [5], 9.35 µM; in [6], 7.55 µM. For the same compound, the TGI in [7] was 2.96 µM; in assay [8], 3.89 µM; in assay [9], 1.98 µM; in assay [10], 4.73 µM.
Take `COc1ccc2c(N)ncc(C#Cc3cc(C(=O)Nc4ccc(CN5CCN(C)CC5)c(C(F)(F)F)c4)cnc3C)c2c1`: the GI50 in assay [1] was 1.36 µM; in assay [2], 0.581 µM; in assay [3], 1.13 µM; in assay [4], 0.594 µM; in [5], 0.386 µM; in assay [6], 0.00868 µM. Besides, the GI50 was 0.841 µM in assay [7], 0.771 µM in assay [8], 0.88 µM in assay [9] and 4.36 µM in assay [10]. Moreover, the TGI worked out at 8.62 µM in assay [1]; 1.15 µM in assay [2]; 10.9 µM in assay [3]; 1.52 µM in assay [4]; 0.956 µM in assay [5]; 1.02 µM in [6]. Also, the TGI in assay [7] stood at 4.13 µM; in assay [8], 2.67 µM; in assay [9] it was 3.87 µM; in assay [10], 33.2 µM.
In the case of `C[C@]12CC[C@H]3[C@@H](CCC4=CC(=O)CC[C@@]43C)[C@@H]1CC[C@@H]2c1csc(N)n1`, the GI50 in assay [1] is 1.41 µM; in assay [2], 3.83 µM; in assay [3] it was 2.98 µM; in assay [4] it was 3.57 µM; in assay [5], 4.2 µM; in assay [6], 2.33 µM. Moreover, the GI50 in assay [7] is 4.49 µM; in assay [8], 14.5 µM; in assay [9], 11 µM; in [10], 6.56 µM. Moreover, the TGI in assay [1] was 13.4 µM; in assay [2], 19 µM; in assay [3], 27.2 µM; in assay [4], 24.5 µM; in assay [5] it was 19.1 µM; in assay [6] it was more than 100 µM. In addition, the TGI was found to be 49 µM in [7], 32.7 µM in assay [8], 28.5 µM in assay [9] and 23.7 µM in assay [10].
Take `CC(=O)O[C@H]1C(=O)[C@@]2(C)C([C@H](OC(=O)c3ccccc3)[C@]3(O)C[C@H](OC(=O)[C@H](O)[C@@H](NC(=O)c4ccccc4)c4ccccc4)C(C)=C1C3(C)C)[C@]1(OC(C)=O)CO[C@@H]1C[C@@H]2O` (stereo partly drawn): the TGI in assay [1], in [2], in assay [3], in assay [4], in assay [5] and in assay [6] was more than 50 µM throughout. Also, the TGI in [7], in [8], in assay [9] and in assay [10] was more than 50 µM throughout. Moreover, the GI50 in assay [2] was 0.0111 µM; in [3], 0.198 µM; in assay [4] it was 0.0142 µM; in assay [5] it was 0.382 µM; in assay [6], 0.00596 µM; in [7], 0.0141 µM. The figures for the GI50 in assay [8] and in assay [9] were 0.0149 µM and 0.054 µM, respectively.
As to `COc1cc([C@@H]2c3cc4c(cc3[C@@H](NC(=O)c3ccc(C#N)cc3)C3COC(=O)[C@@H]32)OCO4)cc(OC)c1O` (stereo partly drawn), the TGI is 13.2 µM in [1]; 1.26 µM in assay [2]; more than 100 µM in [3]; 1.51 µM in [4]; 15.1 µM in assay [5]; more than 100 µM in [6]. Moreover, the TGI in assay [7] is more than 100 µM; in assay [8], 5.56 µM; in assay [9], 22.9 µM; in assay [10], 0.673 µM.
Consider `Cn1nccc1Nc1nccc(-c2ccn([C@H](CO)c3ccc(Cl)c(F)c3)c(=O)c2)n1`, for which the GI50 in [1] was 34.3 µM; in assay [2] it was 20.8 µM; in [3], 33.5 µM; in assay [4], 10 µM; in [5] it was 21.3 µM; in assay [6], 22.5 µM. Further, the GI50 is 15.7 µM in assay [7], 0.275 µM in [8], 1.36 µM in assay [9] and 37.8 µM in assay [10]. Further, the TGI in assay [1], in [2], in [3], in assay [4], in [5] and in assay [6] was more than 100 µM in each case. The TGI in assay [7] is more than 85.1 µM; in assay [8] it was 27.2 µM; in assay [9], 40 µM; in [10] it was more than 100 µM.
Consider `CN(C)CCCC1(c2ccc(F)cc2)OCc2cc(-c3cccc4[nH]ccc34)ccc21` (stereo not drawn), for which the GI50 in assay [1] was 1.41 µM; in [2] it was 1.52 µM; in [3], 1.97 µM; in [4], 1.55 µM; in [5], 1.83 µM; in assay [6], 1.4 µM. Moreover, the GI50 in assay [7] is 1.65 µM; in assay [8] it was 1.79 µM; in assay [9], 1.25 µM; in assay [10], 1.5 µM. Besides, the TGI is 2.77 µM in [1]; 2.89 µM in assay [2]; 4.51 µM in assay [3]; 2.96 µM in assay [4]; 3.42 µM in [5]; 3.32 µM in [6]. Also, the TGI was determined as 3.95 µM in assay [7], 3.59 µM in assay [8], 2.81 µM in assay [9] and 2.89 µM in [10].
